Results taken from ChEMBL document CHEMBL2413050, “Design and synthesis of conformationally restricted capsaicin analogues based in the 1, 3, 4-thiadiazole heterocycle reveal a novel family of transient receptor potential vanilloid 1 (TRPV1) antagonists” (Eur J Med Chem, 2013).

Key:
[1] = biological target: T1, Transient receptor potential cation channel subfamily V member 1 (Rattus norvegicus, UniProt O35433); assay: Antagonist activity at rat TRPV1 receptor expressed in HEK293T cells assessed as inhibition of capsaicin-induced calcium flux after 30 mins by Fluo-4AM based fluorescence assay; assay type: cell-based, HEK-293T
[2] = biological target: T2, Uncharacterized protein (Gallus gallus) (UniProt F1NJH8); assay: Antagonist activity at chicken TRPV1 receptor assessed as inhibition of capsaicin-induced calcium flux at 1 uM after 30 mins by cell based Fluo-4AM fluorescence assay relative to control
T2 sequence (whole entry): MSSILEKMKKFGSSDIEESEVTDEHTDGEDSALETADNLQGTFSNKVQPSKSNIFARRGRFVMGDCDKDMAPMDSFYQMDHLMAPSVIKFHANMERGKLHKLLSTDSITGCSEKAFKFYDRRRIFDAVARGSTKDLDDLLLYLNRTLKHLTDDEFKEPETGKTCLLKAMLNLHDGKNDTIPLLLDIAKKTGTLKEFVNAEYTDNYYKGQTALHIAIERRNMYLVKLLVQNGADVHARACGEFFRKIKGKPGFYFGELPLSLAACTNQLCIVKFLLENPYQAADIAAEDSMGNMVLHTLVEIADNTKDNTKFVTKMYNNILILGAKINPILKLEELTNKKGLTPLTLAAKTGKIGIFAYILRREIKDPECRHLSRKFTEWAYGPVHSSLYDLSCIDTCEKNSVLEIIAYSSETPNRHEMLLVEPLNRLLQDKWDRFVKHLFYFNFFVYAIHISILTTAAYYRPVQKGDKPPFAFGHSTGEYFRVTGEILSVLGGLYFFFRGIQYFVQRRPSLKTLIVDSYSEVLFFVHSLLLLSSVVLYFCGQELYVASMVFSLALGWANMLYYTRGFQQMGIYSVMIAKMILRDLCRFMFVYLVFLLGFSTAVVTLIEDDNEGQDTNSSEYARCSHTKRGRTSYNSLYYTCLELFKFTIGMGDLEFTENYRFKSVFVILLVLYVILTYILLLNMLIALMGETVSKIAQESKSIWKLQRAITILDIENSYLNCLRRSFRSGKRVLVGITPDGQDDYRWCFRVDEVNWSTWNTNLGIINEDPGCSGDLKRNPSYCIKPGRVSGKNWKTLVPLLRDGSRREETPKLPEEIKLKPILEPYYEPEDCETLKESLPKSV

[3] = biological target: Transient receptor potential cation channel subfamily V member 1 (Rattus norvegicus) (UniProt O35433); assay: Antagonist activity at rat TRPV1 receptor expressed in HEK293T cells assessed as inhibition of capsaicin-induced calcium flux at 1 uM after 30 mins by Fluo-4AM based fluorescence assay relative to control; assay type: cell-based; details: HEK-293T
[4] = biological target: Transient receptor potential cation channel subfamily V member 1 (Rattus norvegicus) (UniProt O35433); assay: Antagonist activity at rat TRPV1 receptor expressed in HEK293T cells assessed as inhibition of temperature-induced calcium flux at 1 uM after 30 mins by Fluo-4AM based fluorescence assay relative to control; assay type: cell-based; details: HEK-293T
[5] = biological target: T1, Transient receptor potential cation channel subfamily V member 1; assay: Antagonist activity at rat TRPV1 receptor expressed in HEK293T cells assessed as inhibition of temperature-induced calcium flux after 30 mins by Fluo-4AM based fluorescence assay; assay type: cell-based, HEK-293T

T1 sequence (O35433 whole entry): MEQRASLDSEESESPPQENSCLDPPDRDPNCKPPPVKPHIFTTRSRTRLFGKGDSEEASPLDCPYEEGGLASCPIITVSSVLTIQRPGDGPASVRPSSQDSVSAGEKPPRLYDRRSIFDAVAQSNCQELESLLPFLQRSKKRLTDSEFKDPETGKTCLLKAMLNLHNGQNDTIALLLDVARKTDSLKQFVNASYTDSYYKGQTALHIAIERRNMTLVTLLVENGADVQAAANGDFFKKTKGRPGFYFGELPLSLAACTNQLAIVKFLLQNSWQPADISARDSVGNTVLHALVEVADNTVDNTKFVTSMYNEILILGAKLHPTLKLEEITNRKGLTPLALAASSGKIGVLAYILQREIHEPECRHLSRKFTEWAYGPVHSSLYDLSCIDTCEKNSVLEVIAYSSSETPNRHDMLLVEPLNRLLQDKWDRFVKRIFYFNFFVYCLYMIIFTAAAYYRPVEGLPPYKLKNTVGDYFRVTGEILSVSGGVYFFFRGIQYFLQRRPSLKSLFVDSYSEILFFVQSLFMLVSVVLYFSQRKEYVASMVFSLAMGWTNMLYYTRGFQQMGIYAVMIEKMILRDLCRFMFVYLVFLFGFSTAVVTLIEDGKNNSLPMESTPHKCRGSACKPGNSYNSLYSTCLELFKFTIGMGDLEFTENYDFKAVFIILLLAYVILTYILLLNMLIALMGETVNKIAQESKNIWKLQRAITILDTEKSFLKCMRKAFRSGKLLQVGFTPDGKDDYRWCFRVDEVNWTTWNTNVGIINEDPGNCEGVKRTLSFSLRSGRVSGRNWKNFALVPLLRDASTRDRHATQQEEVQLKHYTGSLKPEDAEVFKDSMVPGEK
Sequence of Transient receptor potential cation channel subfamily V member 1 (Rattus norvegicus) (O35433 whole entry): as above

SMILES	IC50 [1] [nM]	inhibition [2] [%]	inhibition [3] [%]	inhibition [4] [%]	IC50 [5] [nM]
CCCCCCCC(=O)Nc1nnc(-c2cc(I)c(O)c(OC)c2)s1	0.33	85.4	94.5	93.7	1.09
CC(C)(C)c1ccc(NC(=O)N2CCN(c3ncccc3Cl)CC2)cc1		8.97	92.7	66.4	
CCCCCCC(=O)Nc1nnc(-c2cc(I)c(O)c(OC)c2)s1	6.07		90.8	92.4	
CCCCCC(=O)Nc1nnc(-c2cc(I)c(O)c(OC)c2)s1	1.47	95.3	96.6	94.3	0.29
CCCCCCCCC(=O)Nc1nnc(-c2cc(I)c(O)c(OC)c2)s1	0.34	80.1	96.9	91.9	0.15

Now from value to compound:

IC50 [1] [nM]	inhibition [2] [%]	inhibition [3] [%]	inhibition [4] [%]	IC50 [5] [nM]	SMILES
2.61	92.6	95.5	88.8		CCCCCC(=O)Nc1nnc(-c2ccc(O)c(OC)c2)s1
0.15	81.2	97.7	89.8		CCCCCCCC(=O)Nc1nnc(-c2ccc(O)c(OC)c2)s1
0.77		95.3	94		CCCCCCC(=O)Nc1nnc(-c2ccc(O)c(OC)c2)s1
0.18	79.4	98.8	92.9	0.05	CCCCCCCCC(=O)Nc1nnc(-c2ccc(O)c(OC)c2)s1
